From the supplement of paper PMC13380429
Where a name gives a salt, the structure may show the parent alone.

Key:
Settings in all cases: 72 h
Caco-2 [1] = test: cell viability relative to DMSO; higher = less toxic
Calu-3 [2] = test: as above
HepG2 [3] = test: as above
U2OS [4] = test: as above
Vero E6 [5] = test: as above
Caco-2 [6] = test: relative viability EC50 (midpoint between 100% and the lowest measured viability); higher = less toxic
Calu-3 [7] = test: as above
HepG2 [8] = test: as above
U2OS [9] = test: as above
Vero E6 [10] = test: as above
Caco-2 [11] = test: drug sensitivity score (DSS) for viability; higher = more toxic; extreme values may be limits of the assay
Calu-3 [12] = test: as above
HepG2 [13] = test: as above
U2OS [14] = test: as above
Vero E6 [15] = test: as above

SMILES	cell viability (Caco-2 [1]; 1 nM)	cell viability (Caco-2 [1]; 10 nM)	cell viability (Caco-2 [1]; 100 nM)	cell viability (Caco-2 [1]; 1000 nM)	cell viability (Caco-2 [1]; 10000 nM)	cell viability (Calu-3 [2]; 1 nM)	cell viability (Calu-3 [2]; 10 nM)	cell viability (Calu-3 [2]; 100 nM)	cell viability (Calu-3 [2]; 1000 nM)	cell viability (Calu-3 [2]; 10000 nM)	cell viability (HepG2 [3]; 1 nM)	cell viability (HepG2 [3]; 10 nM)	cell viability (HepG2 [3]; 100 nM)	cell viability (HepG2 [3]; 1000 nM)	cell viability (HepG2 [3]; 10000 nM)	cell viability (U2OS [4]; 1 nM)	cell viability (U2OS [4]; 10 nM)	cell viability (U2OS [4]; 100 nM)	cell viability (U2OS [4]; 1000 nM)	cell viability (U2OS [4]; 10000 nM)	cell viability (Vero E6 [5]; 1 nM)	cell viability (Vero E6 [5]; 10 nM)	cell viability (Vero E6 [5]; 100 nM)	cell viability (Vero E6 [5]; 1000 nM)	cell viability (Vero E6 [5]; 10000 nM)	relative viability EC50 (Caco-2 [6])	relative viability EC50 (Calu-3 [7])	relative viability EC50 (HepG2 [8])	relative viability EC50 (U2OS [9])	relative viability EC50 (Vero E6 [10])	drug sensitivity score (Caco-2 [11])	drug sensitivity score (Calu-3 [12])	drug sensitivity score (HepG2 [13])	drug sensitivity score (U2OS [14])	drug sensitivity score (Vero E6 [15])
N#Cc1cc(F)cc(-c2nc(-c3ccc(F)cn3)no2)c1 [AZD9272]	96.7%	105%	101%	111%	94.8%	109%	92.1%	97.7%	90.4%	97.5%	94.3%	99.5%	95.5%	107%	96.2%	94.9%	99%	96.7%	104%	103%	96.7%	95.2%	95.8%	89.5%	108%	> 10 µM	> 10 µM	> 10 µM	> 10 µM	> 10 µM	0	0	0	0	0
COc1ccccc1N1CCN(CCN2C(=O)CC3(CCCC3)CC2=O)CC1 [BMY-7378]	89%	93.9%	97.5%	97.3%	103%	92.7%	95.2%	109%	110%	106%	106%	102%	105%	98.4%	108%	93.5%	100%	96.3%	95.8%	102%	97.3%	95.6%	99.9%	90.1%	106%	> 10 µM	> 10 µM	> 10 µM	> 10 µM	> 10 µM	0	0	0	0	0
CCC(=O)O[C@]1(C(=O)CO)CC[C@H]2[C@@H]3CCC4=CC(=O)CC[C@]4(C)[C@H]3CC[C@@]21C [CB-03-01]	99.4%	103%	100%	101%	101%	93.7%	97%	102%	109%	94.9%	102%	106%	90.8%	95.4%	96.1%	99.9%	104%	98.3%	102%	97%	101%	107%	101%	96.8%	99.6%	> 10 µM	> 10 µM	> 10 µM	> 10 µM	> 10 µM	0	0	0	0	0
CO/N=C(\C(=O)N[C@@H]1C(=O)N2C(C(=O)O)=C(CSC(=O)c3ccco3)CS[C@H]12)c1csc(N)n1 [CEFTIOFUR HYDROCHLORIDE]	99.9%	97%	90.6%	95.4%	99.3%	96.3%	110%	99.4%	104%	102%	106%	98.5%	92.4%	103%	103%	104%	95.6%	100%	97.4%	104%	92.5%	107%	93.9%	96.9%	106%	> 10 µM	> 10 µM	> 10 µM	> 10 µM	> 10 µM	0	0	0	0	0
CC(C)(CO)Cc1cc(C(C)(C)C)c(O)c(C(C)(C)C)c1 [CGP-7930]	96.8%	98.5%	101%	99.7%	96%	93.6%	99.2%	98.3%	105%	102%	109%	107%	91.1%	108%	101%	98.2%	101%	103%	101%	104%	108%	109%	95.6%	108%	102%	> 10 µM	> 10 µM	> 10 µM	> 10 µM	> 10 µM	0	0	0	0	0
O=C(O)c1ccc2c(c1)nc(Nc1cccc(Cl)c1)c1ccncc12 [CX-4945]	98.7%	95.2%	92%	95.6%	97.7%	111%	103%	111%	101%	83.2%	106%	109%	92%	102%	77%	102%	101%	101%	88.4%	84.8%	101%	98.4%	101%	95.1%	86.5%	> 10 µM	> 10 µM	> 10 µM	> 10 µM	> 10 µM	0	0.3	0.7	1.1	0.4
O=C(O)CNC(=O)c1nc(Cl)c2ccccc2c1O [FG-2216]	98.2%	102%	99.3%	94.1%	93.5%	106%	98.5%	96.6%	103%	103%	101%	98%	96.4%	99.1%	95.3%	107%	98%	101%	91.5%	93.2%	100%	99.4%	104%	102%	99.5%	> 10 µM	> 10 µM	> 10 µM	> 10 µM	> 10 µM	0	0	0	0	0
O=C(NCCO)c1cccc(-c2cc(Nc3ccc(OC(F)(F)F)cc3)ncn2)c1 [GNF-5]	94.1%	92.7%	95.3%	107%	78.5%	102%	99.4%	89.8%	107%	94%	99.5%	95.2%	98.2%	98.1%	89.4%	95.7%	101%	98.5%	106%	98.5%	91.5%	97.4%	94.6%	105%	102%	> 10 µM	> 10 µM	> 10 µM	> 10 µM	> 10 µM	0.4	0	0	0	0
Cc1ccc(Nc2ncc3c(n2)N(C)C(=O)N(c2cc(NC(=O)c4cccc(C(F)(F)F)c4)ccc2C)C3)cn1 [GNF-7]	93.8%	92.1%	89.3%	19.3%	18.7%	112%	103%	87.5%	20.8%	23.7%	92.5%	101%	97.7%	16.8%	0.3%	105%	97.5%	78.8%	13.9%	32.9%	95.2%	103%	91%	12%	11.3%	0.21 µM	0.195 µM	0.501 µM	0.156 µM	0.235 µM	16.6	16.6	15.4	19	17.5
O=C(O)CCNc1cc(N2CCc3ccccc3CC2)nc(-c2ccccn2)n1 [GSK-J1]	91.6%	92.4%	100%	99.7%	104%	97.5%	93.3%	97.9%	104%	111%	109%	89.9%	113%	101%	91.3%	90.4%	100%	91.9%	98.6%	102%	102%	94.8%	96.2%	95.2%	102%	> 10 µM	> 10 µM	> 10 µM	> 10 µM	> 10 µM	0	0	0	0	0
CCOC(=O)c1c(/C(C#N)=C\N)c2ccc(Cl)c(Cl)c2n1C [KH-CB19]	101%	93.6%	103%	99.2%	92.4%	98.2%	97.7%	96.6%	101%	101%	99.8%	105%	98.7%	102%	93.2%	102%	99.6%	103%	96.5%	107%	96.2%	104%	98.4%	103%	92%	> 10 µM	> 10 µM	> 10 µM	> 10 µM	> 10 µM	0	0	0	0	0
O=C(Cc1ccc(-c2ccc(OCCN3CCOCC3)cc2)cn1)NCc1ccccc1 [KX2-391]	102%	92.3%	91.7%	45.3%	39.2%	96.8%	90.8%	82.8%	54.5%	42%	107%	113%	80.8%	34.5%	38.5%	97.5%	94.8%	96.4%	24.5%	19.5%	91.7%	93.2%	88.3%	24.5%	27.2%	0.284 µM	0.222 µM	0.143 µM	0.339 µM	0.196 µM	11.2	10.4	14.9	14.3	15.8
c1ccc(Oc2nc(NC3CCCCC3)c3[nH]cnc3n2)cc1 [MRS-3777]	87%	104%	99.6%	109%	100%	92.7%	95.7%	102%	104%	101%	110%	97.5%	88.7%	99.2%	99.4%	97.5%	98.8%	97.5%	108%	103%	98.7%	96.2%	93.5%	97.2%	78.2%	> 10 µM	> 10 µM	> 10 µM	> 10 µM	> 10 µM	0	0	0	0	1.1
c1ccc2sc(SNC3CCCCC3)nc2c1 [N-cyclohexyl-2-benzothiazolesulfenamide]	92.5%	102%	116%	101%	105%	105%	99.6%	101%	84%	94.7%	97.5%	105%	84.2%	97.4%	100%	95.1%	95%	100%	96.6%	100%	110%	106%	100%	107%	87.1%	> 10 µM	> 10 µM	> 10 µM	> 10 µM	> 10 µM	0	1.6	0	0	0
C=CCN1CC[C@]23c4c5ccc(O)c4O[C@H]2C(=O)CC[C@@]3(O)[C@H]1C5 [NALOXONE HYDROCHLORIDE]	98%	94.7%	101%	100%	104%	94.5%	94.4%	88.5%	91%	99.6%	106%	97.9%	102%	95.9%	103%	103%	99.7%	102%	103%	100%	99%	103%	104%	95.9%	100%	> 10 µM	> 10 µM	> 10 µM	> 10 µM	> 10 µM	0	0	0	0	0
